Patent US20250206751A1, “HETEROCYCLIC COMPOUND FOR INDUCING DEGRADATION OF G12D MUTANT KRAS PROTEIN” (Astellas Pharma Inc., priority 2022, published 2025)

Key:
[1] = test system: human KRAS G12D mutant-positive PK-59 pancreatic cancer cell line-derived xenograft; assay: Anti-tumor activity in PK-59 xenograft mice (Test Example 4); format: in vivo; details: 10 mg/kg into tail vein, once a week, twice in total; PK-59 xenograft nude mice
Description: Test Example 4: Evaluation of Anti-Tumor Activity in Human KRAS G12D Mutant -Positive PK-59 Pancreatic Cancer Cell Line-Derived Xenograft Mice
PK-59 cells (RIKEN BRC, RCB1901) were cultured using a RPMI 1640 medium containing 10% fetal bovine serum in the presence of 5% CO2 at 37° C. The PK-59 cells were collected and suspended in PBS, and after adding an equal amount of Matrigel (from Becton, Dickinson and Company), 4-5-week-old male nude mice (CAnN.Cg-Foxn1^nu/CrlCrlj (nu/nu), from Charles River Laboratories Japan) were subcutaneously inoculated with the cell suspension of 1.0-2.0×10^7 cells/mL in a volume of 100 μL per mouse. About two weeks after the inoculation, the mice were divided into groups so that all the groups had approximately the same tumor volume and body weight, and administration of test compounds was started on the next day. The study was conducted for 5 mice each of a vehicle group and test compound administration groups. The compounds were dissolved in a solvent containing ethanol (from FUJIFILM Wako Pure Chemical Corporation), a 5% glucose solution (from Otsuka Pharmaceutical), 1M hydrochloric acid (from Kanto Chemical Co., Inc.), 50% (2-hydroxypropyl)-β-cyclodextrin (HP-βCD) solution (from ROQUETTE), HCO-40 (from Nikko Chemicals Co., Ltd.) and 1M sodium hydroxide solution (from Kanto Chemical Co., Inc.) at a liquid amount ratio of 4:84.4:1.1:1:9:0.5. The test compounds dissolved in the respective solvent for the test compound administration groups and the solvent for the vehicle group were administered into tail vein. The administration was performed once a week and twice in total. The tumor sizes and the body weights were measured twice a week. The tumor volumes were calculated using the following equation.
[Tumor volume (mm^3)]=[Long diameter of the tumor (mm)]×[Short diameter of the tumor (mm)]^2×0.5
The tumor growth inhibition rate (%) by the test compounds were calculated with the tumor volumes of the test compound administration groups on the previous day of the start of the administration taken as 100% inhibition and the tumor volumes of the vehicle groups two weeks after the initial administration taken as 0% inhibition. In addition, when the tumor volume of a test compound administration group was smaller than the tumor volume on the previous day of the start of the administration, the tumor regression rate (%) by the test compound was calculated with the tumor volume on the previous day of the start of the administration taken as 0% regression and with the tumor volume 0 taken as 100% regression.

[2] = test system: phosphorylation of threonine 202 (Thr202) and tyrosine 204 (Tyr204) of ERK; assay: ERK phosphorylation inhibitory effect by Cell ELISA in AsPC-1 (Test Example 2); format: cell-based, human; details: Homo sapiens, ASPC1, AsPC-1 cells, cultured overnight with compound; 1 μM trametinib taken as 0%
Method in brief: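 AsPC-1 cells (G12D KRAS) treated overnight with compound (10 points, 10 μM to 0.3 nM final), then glyoxal-fixed and immunostained for phospho-ERK with a fluorescent secondary read at 800 nm. IC50 by Sigmoid-Emax regression, with DMSO as 100% and 1 μM trametinib as 0%.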

Row | IC50 [2] | Structure (SMILES) | Anti-Tumor Activity Two Weeks After Initial Administration: tumor growth inhibition rate [1] | Anti-Tumor Activity Two Weeks After Initial Administration: tumor regression rate [1]
1 | 11 nM | Cc1ncsc1-c1ccc([C@H](CO)NC(=O)[C@@H]2C[C@@H](O)CN2C(=O)[C@H](C(C)C)n2cc(-c3ccc(COc4c(-c5c(C)c(F)cc6[nH]ncc56)c(C5CC5)cc5c(N(C)[C@H]6CCNC6)nc(OC[C@H]6CCCO6)nc45)cc3)nn2)cc1 (atropisomer, axis not shown; (M)) [Example 9, (4R)-1-[(2S)-2-{4-[4-({[(7M) 6-cyclopropyl-7-(6-fluoro-5-methyl-1H-indazol-4-yl)-4-{methyl[(3S)-pyrrolidin-3-yl]amino}-2-{[(2R)-oxolan-2-yl]methoxy}quinazolin-8-yl}oxy}methyl)phenyl]-1H-1,2,3-triazol-1-yl}-3-methylbutanoyl]-4-hydroxy-N-{(1R)-2-hydroxy-1-[4-(4-methyl-1,3-thiazol-5-yl)phenyl]ethyl}-L-prolinamide] | 81% inhibition | 
2 | 8 nM | CCn1nccc1-c1ccc([C@H](CO)NC(=O)[C@@H]2C[C@@H](O)CN2C(=O)[C@H](C(C)C)n2cc(-c3ccc(COc4c(-c5c(C)c(F)cc6[nH]ncc56)c(C5CC5)cc5c(N(C)[C@H]6CCNC6)nc(OC[C@H](C)OC)nc45)cc3)nn2)cc1 (atropisomer, axis not shown; (M)) [Example 13] |  | 26% regression

The remaining lines, values behind:

Row | Structure (SMILES) | IC50 [2] | Anti-Tumor Activity Two Weeks After Initial Administration: tumor growth inhibition rate [1] | Anti-Tumor Activity Two Weeks After Initial Administration: tumor regression rate [1]
3 | CCN(c1nc(OC[C@H](C)OC)nc2c(OCc3ccc(-c4cn([C@H](C(=O)N5C[C@H](O)C[C@H]5C(=O)N[C@@H](CO)c5ccc(-c6scnc6C)cc5)C(C)C)nn4)cc3)c(-c3c(C)c(F)cc4[nH]ncc34)c(C3CC3)cc12)[C@H]1CCNC1 (atropisomer, axis not shown; (M)) [Example 50, (4R)-1-[(2S)-2-(4-{4-[({(7M)-6-cyclopropyl-4-{ethyl[(3S)-pyrrolidin-3-yl]amino}-7-(6-fluoro-5-methyl-1H-indazol-4-yl)-2-[(2S)-2-methoxypropoxy]quinazolin-8-yl}oxy)methyl)phenyl}-1H-1,2,3-triazol-1-yl)-3-methylbutanoyl]-4-hydroxy-N-{(1R)-2-hydroxy-1-[4-(4-methyl-1,3-thiazol-5-yl)phenyl]ethyl}-L-prolinamide] | 8 nM |  | 20% regression
4 | CO[C@@H](C)COc1nc(N(C)[C@@H]2CCNC2)c2cc(C3CC3)c(-c3c(C)c(F)cc4[nH]ncc34)c(OCc3ccc(-c4cn([C@H](C(=O)N5C[C@H](O)C[C@H]5C(=O)N[C@@H](CO)c5ccc(-c6scnc6C)cc5)C(C)C)nn4)cc3)c2n1 (atropisomer, axis not shown; (M)) [Example 53] | 9 nM |  | 53% regression
5 | CO[C@@H](C)COc1cc(N(C)[C@H]2CCNC2)c2cc(C3CC3)c(-c3c(C)c(F)cc4[nH]ncc34)c(OCc3ccc(-c4cn([C@H](C(=O)N5C[C@H](O)C[C@H]5C(=O)N[C@@H](CO)c5ccc(-c6scnc6C)cc5)C(C)C)nn4)cc3)c2n1 (atropisomer, axis not shown; (M)) [Example 11, (4R)-1-[(2S)-2-{4-[4-({[(7M)-6-cyclopropyl-7-(6-fluoro-5-methyl-1H-indazol-4-yl)-2-[(2S)-2-methoxypropoxy]-4-{methyl[(3S)-pyrrolidin-3-yl]amino}quinazolin-8-yl]oxy}methyl)phenyl]-1H-1,2,3-triazol-1-yl}-3-methylbutanoyl]-4-hydroxy-N-{(1R)-2-hydroxy-1-[4-(4-methyl-1,3-thiazol-5-yl)phenyl]ethyl}-L-prolinamide] | 24 nM |  | 6% regression
